Holding throughout (type): cell-based
Assay [1] deals with HeLa cells. The experiment in a line: Autophagy flux assay with Bafilomycin A1, LC3B/LAMP2 double immunofluorescence. Conditions: control cells treated with BafA1.
In assay [2] the test system is HeLa cells. The experiment in a line: LC3B lipidation assay by western blot. As to conditions: GAPDH loading control. A general note: In western blotting, separated proteins are transferred to a membrane and probed.
The subject of assay [3] is HeLa cells. The experiment in a line: LC3B immunofluorescence, autophagy induction. As to conditions: time-dependent LC3B immunostaining, then return to baseline.

For `CO/C1=C\C(C)=C\[C@@H](C)[C@@H](O)[C@@H](C)C/C(C)=C/C=C/[C@H](OC)[C@@H]([C@@H](C)[C@@H](O)[C@H](C)[C@@]2(O)C[C@@H](O)[C@H](C)[C@@H](C(C)C)O2)OC1=O` [BafA1, Bafilomycin A1], in assay [1], the “autophagosome accumulation (LC3B puncta) in control cells” value was “marked accumulation of autophagosomes”.

Regarding `CO[C@H]1C[C@@H]2CC[C@@H](C)[C@@](O)(O2)C(=O)C(=O)N2CCCC[C@H]2C(=O)O[C@H]([C@H](C)C[C@@H]2CC[C@@H](O)[C@H](OC)C2)CC(=O)[C@H](C)/C=C(\C)[C@@H](O)[C@@H](OC)C(=O)[C@H](C)C[C@H](C)/C=C/C=C/C=C/1C` [rapamycin], the “LC3B-II/LC3B-I ratio (LC3B lipidation)” value in assay [2] is “increased LC3B- II/LC3B-I ratio”. Moreover, in assay [3], the “time of peak autophagy induction” value was determined as 90 min.

The values are drawn from doi:10.1101/2024.11.03.621781v1 (bioRxiv, 2024).
